Values quoted from earlier work in patent publication US20230172202A1, “INSECT AND NON-INSECT ARTHROPOD PEST REPELLENT COMPOSITIONS AND METHODS” (Livful Inc., priority 2021, published 2023).

Tests used:
mosquitos = conditions: 25% active ingredient (IR3535 in ethanol); human subjects, field
[1] = according to the manufacturer (Merck KGaA)

| SMILES | mean complete protection time (mean CPT) (mosquitos) [h] | ideal pH for IR3535 [1] |
| --- | --- | --- |
| CCN(CC)C(=O)c1cccc(C)c1 [DEET, N,N-diethyl-m-toluamide] | 5.6 | – |
| CCCCN(CCC(=O)OCC)C(C)=O [IR3535®, ethyl butylacetylaminopropionate] | 3.0 | 6.0-6.5 |
